# Data from patent US20240269139A1, “COMPOUNDS FOR TARGETED PROTEIN DEGRADATION OF KINASES” (DANA-FARBER CANCER INSTITUTE, INC., priority 2020, published 2024).
# Read-outs that look alike come from different tables or passages of the source.
# Columns and labels:
# Assay type in all cases: cell-based
# [1] = target: T1, protein kinases (human kinome) (Homo sapiens, UniProt O14965)
# T1 sequence (O14965 1-403): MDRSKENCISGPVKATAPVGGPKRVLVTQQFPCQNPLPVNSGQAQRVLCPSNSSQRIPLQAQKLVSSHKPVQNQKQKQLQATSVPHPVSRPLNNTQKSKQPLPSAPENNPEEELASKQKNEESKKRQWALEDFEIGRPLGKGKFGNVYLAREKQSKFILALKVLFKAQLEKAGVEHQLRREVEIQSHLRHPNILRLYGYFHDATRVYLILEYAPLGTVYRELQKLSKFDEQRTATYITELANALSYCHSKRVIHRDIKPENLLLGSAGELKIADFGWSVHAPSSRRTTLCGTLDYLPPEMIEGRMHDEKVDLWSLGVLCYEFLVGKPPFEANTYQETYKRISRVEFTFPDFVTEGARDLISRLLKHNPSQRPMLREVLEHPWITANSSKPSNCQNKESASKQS
# [2] = target: T2, protein kinases (human kinome) (Homo sapiens, UniProt O75385); conditions: ULK1 O75385
# T2 sequence (O75385 1-1050): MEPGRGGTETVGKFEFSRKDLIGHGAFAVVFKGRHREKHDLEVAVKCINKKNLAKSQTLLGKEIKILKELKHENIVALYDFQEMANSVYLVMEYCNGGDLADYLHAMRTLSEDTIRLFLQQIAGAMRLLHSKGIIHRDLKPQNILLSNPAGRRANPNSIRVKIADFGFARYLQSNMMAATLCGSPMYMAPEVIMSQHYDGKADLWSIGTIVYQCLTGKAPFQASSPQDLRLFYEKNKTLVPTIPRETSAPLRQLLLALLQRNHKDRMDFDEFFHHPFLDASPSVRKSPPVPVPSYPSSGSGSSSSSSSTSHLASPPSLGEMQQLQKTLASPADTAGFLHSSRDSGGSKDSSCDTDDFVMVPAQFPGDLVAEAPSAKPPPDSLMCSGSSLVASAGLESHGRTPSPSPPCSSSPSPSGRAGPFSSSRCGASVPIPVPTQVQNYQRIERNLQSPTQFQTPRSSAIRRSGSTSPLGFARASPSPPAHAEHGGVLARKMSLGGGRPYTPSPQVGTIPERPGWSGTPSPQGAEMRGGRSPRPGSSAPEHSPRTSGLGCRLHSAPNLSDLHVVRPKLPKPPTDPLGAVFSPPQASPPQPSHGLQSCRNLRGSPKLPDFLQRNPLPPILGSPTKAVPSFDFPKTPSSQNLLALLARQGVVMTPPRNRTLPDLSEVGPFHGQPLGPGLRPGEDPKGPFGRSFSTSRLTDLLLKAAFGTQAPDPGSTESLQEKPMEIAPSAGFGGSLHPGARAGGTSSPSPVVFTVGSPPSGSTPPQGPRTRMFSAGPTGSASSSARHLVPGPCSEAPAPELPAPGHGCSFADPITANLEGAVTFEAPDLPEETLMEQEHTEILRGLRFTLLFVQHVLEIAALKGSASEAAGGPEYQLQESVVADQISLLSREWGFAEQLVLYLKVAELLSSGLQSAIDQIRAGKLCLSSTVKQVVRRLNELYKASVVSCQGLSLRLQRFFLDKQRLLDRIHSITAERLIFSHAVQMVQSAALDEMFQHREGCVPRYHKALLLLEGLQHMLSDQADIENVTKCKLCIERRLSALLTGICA
# [3] = target: protein kinases (human kinome) (Homo sapiens, UniProt P16591); conditions: for logFC of FER (P16591-1): down; for logFC of FER: FER P16591-1
# [4] = target: protein kinases (human kinome) (Homo sapiens, UniProt P30291)
# [5] = target: protein kinases (human kinome) (Homo sapiens, UniProt Q2M2I8)
# [6] = target: protein kinases (human kinome) (Homo sapiens, UniProt Q9H0K1); conditions: experiment wp131
# [7] = system: protein kinases (human kinome); conditions: for logFC of SRC: Accession P12931-2; for logFC LCK: accession P06239-3; for logFC LCK / logFC LCK (P06239-3): direction of change down
# [8] = AURKB Q96GD4-5, experiment wp131
# [9] = AURKB Q96GD4-5, experiment wp137
# Chain of protein kinases (human kinome) (Homo sapiens, UniProt P16591) (P16591 whole entry): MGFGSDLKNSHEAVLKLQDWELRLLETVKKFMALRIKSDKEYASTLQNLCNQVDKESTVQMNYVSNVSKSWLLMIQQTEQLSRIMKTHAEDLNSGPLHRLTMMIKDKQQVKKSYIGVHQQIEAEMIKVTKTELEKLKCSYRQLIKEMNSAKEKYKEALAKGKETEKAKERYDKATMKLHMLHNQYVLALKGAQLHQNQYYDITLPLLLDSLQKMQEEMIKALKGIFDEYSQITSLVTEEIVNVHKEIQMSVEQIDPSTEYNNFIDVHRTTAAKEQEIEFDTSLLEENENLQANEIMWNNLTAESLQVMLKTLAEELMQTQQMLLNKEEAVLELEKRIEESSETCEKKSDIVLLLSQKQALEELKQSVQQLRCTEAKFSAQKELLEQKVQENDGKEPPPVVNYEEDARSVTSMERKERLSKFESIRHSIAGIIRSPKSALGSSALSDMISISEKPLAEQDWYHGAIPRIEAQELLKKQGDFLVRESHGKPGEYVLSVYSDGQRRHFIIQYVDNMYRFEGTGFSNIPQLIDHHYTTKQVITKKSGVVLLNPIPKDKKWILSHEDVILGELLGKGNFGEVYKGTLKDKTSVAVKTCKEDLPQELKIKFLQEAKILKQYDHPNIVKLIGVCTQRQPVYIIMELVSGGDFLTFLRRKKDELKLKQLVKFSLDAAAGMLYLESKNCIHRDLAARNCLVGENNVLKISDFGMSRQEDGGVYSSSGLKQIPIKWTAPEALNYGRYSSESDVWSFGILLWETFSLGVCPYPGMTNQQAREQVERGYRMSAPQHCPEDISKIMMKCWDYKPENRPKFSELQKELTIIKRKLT
# Chain of protein kinases (human kinome) (Homo sapiens, UniProt Q2M2I8) (Q2M2I8 whole entry): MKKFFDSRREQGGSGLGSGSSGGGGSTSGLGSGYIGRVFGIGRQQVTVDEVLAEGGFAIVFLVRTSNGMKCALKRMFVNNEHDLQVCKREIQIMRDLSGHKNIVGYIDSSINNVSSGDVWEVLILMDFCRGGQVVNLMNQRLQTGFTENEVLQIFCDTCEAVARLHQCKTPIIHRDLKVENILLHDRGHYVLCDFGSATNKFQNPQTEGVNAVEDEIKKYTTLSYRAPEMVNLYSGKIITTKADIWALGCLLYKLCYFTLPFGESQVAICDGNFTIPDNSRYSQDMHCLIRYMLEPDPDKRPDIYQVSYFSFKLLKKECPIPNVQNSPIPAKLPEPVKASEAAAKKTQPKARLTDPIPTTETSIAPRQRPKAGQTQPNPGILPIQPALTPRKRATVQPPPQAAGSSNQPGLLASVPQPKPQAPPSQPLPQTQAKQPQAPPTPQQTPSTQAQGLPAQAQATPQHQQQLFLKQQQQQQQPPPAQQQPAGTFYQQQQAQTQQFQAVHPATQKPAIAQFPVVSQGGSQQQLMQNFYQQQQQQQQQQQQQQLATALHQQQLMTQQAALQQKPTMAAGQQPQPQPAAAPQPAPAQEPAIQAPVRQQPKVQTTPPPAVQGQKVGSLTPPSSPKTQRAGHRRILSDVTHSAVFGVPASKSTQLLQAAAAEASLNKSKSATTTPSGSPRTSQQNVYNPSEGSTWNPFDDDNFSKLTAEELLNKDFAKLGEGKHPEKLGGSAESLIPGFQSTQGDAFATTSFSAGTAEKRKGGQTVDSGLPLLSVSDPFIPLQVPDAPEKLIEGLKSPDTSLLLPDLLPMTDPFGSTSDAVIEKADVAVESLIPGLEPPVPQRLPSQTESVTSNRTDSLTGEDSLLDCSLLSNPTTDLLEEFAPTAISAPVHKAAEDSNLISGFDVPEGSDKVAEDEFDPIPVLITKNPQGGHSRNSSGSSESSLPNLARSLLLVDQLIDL
# Chain of protein kinases (human kinome) (Homo sapiens, UniProt P30291) (P30291 whole entry): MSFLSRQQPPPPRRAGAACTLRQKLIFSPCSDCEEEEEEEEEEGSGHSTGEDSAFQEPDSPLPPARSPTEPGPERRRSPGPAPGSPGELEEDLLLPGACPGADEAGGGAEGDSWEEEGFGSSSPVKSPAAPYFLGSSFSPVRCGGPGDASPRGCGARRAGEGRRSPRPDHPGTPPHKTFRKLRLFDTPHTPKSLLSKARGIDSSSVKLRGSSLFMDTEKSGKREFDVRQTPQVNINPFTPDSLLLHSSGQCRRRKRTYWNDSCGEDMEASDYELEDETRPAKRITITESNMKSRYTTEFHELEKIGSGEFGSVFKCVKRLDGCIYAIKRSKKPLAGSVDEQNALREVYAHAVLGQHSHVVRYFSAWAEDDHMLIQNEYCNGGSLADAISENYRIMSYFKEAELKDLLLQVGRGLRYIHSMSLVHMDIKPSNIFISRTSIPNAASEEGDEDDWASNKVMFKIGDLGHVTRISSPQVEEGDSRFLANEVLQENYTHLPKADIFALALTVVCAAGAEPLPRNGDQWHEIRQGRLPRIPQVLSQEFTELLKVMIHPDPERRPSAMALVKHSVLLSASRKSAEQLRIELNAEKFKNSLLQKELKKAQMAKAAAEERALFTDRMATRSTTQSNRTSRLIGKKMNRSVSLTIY
# Chain of protein kinases (human kinome) (Homo sapiens, UniProt Q9H0K1) (Q9H0K1 whole entry): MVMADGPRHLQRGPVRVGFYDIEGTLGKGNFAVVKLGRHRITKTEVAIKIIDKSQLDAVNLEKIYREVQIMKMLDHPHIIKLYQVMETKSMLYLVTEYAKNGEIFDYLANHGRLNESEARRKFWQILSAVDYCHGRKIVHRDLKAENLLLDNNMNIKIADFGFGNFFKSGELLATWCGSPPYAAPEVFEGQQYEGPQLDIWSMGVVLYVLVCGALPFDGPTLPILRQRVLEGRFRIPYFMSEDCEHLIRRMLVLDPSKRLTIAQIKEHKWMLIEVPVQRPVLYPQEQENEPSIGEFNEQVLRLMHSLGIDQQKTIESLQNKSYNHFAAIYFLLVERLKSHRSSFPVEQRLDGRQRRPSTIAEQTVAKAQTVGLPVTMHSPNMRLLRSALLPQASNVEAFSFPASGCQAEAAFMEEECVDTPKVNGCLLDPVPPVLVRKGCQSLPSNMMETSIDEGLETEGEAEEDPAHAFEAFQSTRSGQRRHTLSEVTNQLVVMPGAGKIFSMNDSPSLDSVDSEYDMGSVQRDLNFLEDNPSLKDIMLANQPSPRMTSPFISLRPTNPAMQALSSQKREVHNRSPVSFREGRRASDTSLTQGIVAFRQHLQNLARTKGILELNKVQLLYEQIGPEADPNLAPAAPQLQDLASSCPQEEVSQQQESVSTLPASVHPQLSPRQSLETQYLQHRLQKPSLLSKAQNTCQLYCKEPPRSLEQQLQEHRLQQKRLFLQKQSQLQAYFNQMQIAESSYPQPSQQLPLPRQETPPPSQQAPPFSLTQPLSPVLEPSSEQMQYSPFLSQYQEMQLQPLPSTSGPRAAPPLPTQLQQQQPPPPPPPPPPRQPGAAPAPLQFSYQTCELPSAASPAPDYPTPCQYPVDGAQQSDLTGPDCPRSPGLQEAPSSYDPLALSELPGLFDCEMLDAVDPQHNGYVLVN
smiles,measurement,setting,value
CC(C)S(=O)(=O)c1ccccc1Nc1nc(Nc2ccc(N3CCN(CCOCCOCCNC(=O)CNc4cccc5c4C(=O)N(C4CCC(=O)NC4=O)C5=O)CC3)cc2)ncc1Cl (stereo not shown) [TL12.186],logFC AURKA (O14965),[1]; experiment wp016,−1.758
same,logFC AURKA (O14965),[1]; experiment wp131,−3.193
same,logFC AURKA (O14965),[1]; experiment wp137,−2.642
same,logFC ULK1,[2]; experiment wp131,−3.01
same,logFC ULK1,[2]; experiment wp137,−2.237
same,logFC of FER (P16591-1),[3]; Experiment wp016,−2.727
same,logFC of FER (P16591-1),[3]; Experiment wp131,−2.583
same,logFC of FER (P16591-1),[3]; Experiment wp137,−2.329
same,logFC of FER,[3]; experiment wp016,−2.727
same,logFC of FER,[3]; experiment wp131,−2.583
same,logFC of FER,[3]; experiment wp137,−2.329
same,logFC of WEE1,"[4]; WEE1 P30291-1, experiment wp137",−2.511
same,logFC WEE1 (P30291-1),[4]; experiment wp016,−1.514
same,logFC WEE1 (P30291-1),[4]; experiment wp131,−2.574
same,logFC WEE1 (P30291-1),[4]; experiment wp137,−2.511
same,logFC AAK1,"[5]; AAK1 (Q2M218-1), experiment wp016, down",−1.338
same,logFC AAK1,"[5]; AAK1 (Q2M218-1), experiment wp131, down",−1.52
same,logFC AAK1,"[5]; AAK1 (Q2M218-1), experiment wp137, down",−1.31
same,logFC AAK1,"[5]; AAK1, accession Q2M218-1, experiment wp016, direction of change down",−1.338
same,logFC AAK1,"[5]; AAK1, accession Q2M218-1, experiment wp131, direction of change down",−1.52
same,logFC AAK1,"[5]; AAK1, accession Q2M218-1, experiment wp137, direction of change down",−1.31
same,logFC of SIK2,[6]; Accession Q9H0K1,−1.317
same,logFC SIK2 (Q9H0K1),[6]; direction of change down,−1.317
same,logFC,[7]; [8],−0.9938
same,logFC AURKB,[7]; [8],−0.9938
same,logFC,[7]; [9],−0.9711
same,logFC AURKB,[7]; [9],−0.9711
same,logFC BUB1B,"[7]; Accession O60566-3, experiment wp131, direction down",−0.541
same,logFC BUB1B,"[7]; Accession O60566-3, experiment wp137, direction down",−0.5516
same,logFC of SRC,[7]; experiment wp016,−0.3573
same,logFC of SRC,[7]; experiment wp131,−0.7777
same,logFC of SRC,[7]; experiment wp137,−0.5738
same,logFC CSNK1D,"[7]; Accession P48730-2, experiment wp137, direction down",−0.4721
same,logFC of CDK17,"[7]; Accession Q00537-2, experiment wp137",−0.7026
same,logFC BUB1B,"[7]; BUB1B (O60566-3), experiment wp131",−0.541
same,logFC BUB1B,"[7]; BUB1B (O60566-3), experiment wp137",−0.5516
same,logFC CSNK1D,"[7]; CSNK1D P48730-2, experiment wp137",−0.4721
same,logFC PRKAA1 (Q13131-2),"[7]; Experiment wp016, direction down",−0.434
same,logFC PRKAA1 (Q13131-2),"[7]; Experiment wp131, direction down",−0.5988
same,logFC PRKAA1 (Q13131-2),"[7]; Experiment wp137, direction down",−0.641
same,logFC LCK,[7]; experiment wp016,−0.7129
same,logFC LCK,[7]; experiment wp131,−1.455
same,logFC LCK,[7]; experiment wp137,−1.373
same,logFC,"[7]; MARK2 Q7KZI7-14, experiment wp131",−0.4868
same,logFC,"[7]; PIP5K1A (Q99755-3), experiment wp131",−0.3436
same,logFC,"[7]; PIP5K1A (Q99755-3), experiment wp137",−0.4526
same,logFC RPS6KA1,"[7]; RPS6KA1 (Q15418-2), experiment wp137",−0.4514
same,logFC CDK9 (P50750-2),[7]; experiment wp016,−0.6414
same,logFC PRKAA1 (Q13131-2),[7]; experiment wp016,−0.434
same,logFC LCK (P06239-3),[7]; experiment wp016,−0.7129
same,logFC ABL2 (P42684-5),[7]; experiment wp131,−0.8023
same,logFC CDK9 (P50750-2),[7]; experiment wp131,−1.451
same,logFC PRKAA1 (Q13131-2),[7]; experiment wp131,−0.5988
same,logFC of ABL2 (P42684-5),[7]; experiment wp131,−0.8023
same,logFC of MARK2 (Q7KZI7-14),[7]; experiment wp131,−0.4868
same,logFC LCK (P06239-3),[7]; experiment wp131,−1.455
same,logFC CDK9 (P50750-2),[7]; experiment wp137,−1.511
same,logFC PRKAA1 (Q13131-2),[7]; experiment wp137,−0.641
same,logFC RPS6KA1 (Q15418-2),[7]; experiment wp137,−0.4514
same,logFC of CDK17 (Q00537-2),[7]; experiment wp137,−0.7026
same,logFC LCK (P06239-3),[7]; experiment wp137,−1.373
